Where only a bound is given, the exact number is not on record here.

Common to all, as to assay type: biochemical
Test [1] deals with T1, purified recombinant human TG2 (tissue transglutaminase) (Homo sapiens, UniProt P21980).
T1 construct: purchased Zedira, Germany
T1 sequence (P21980 1-687): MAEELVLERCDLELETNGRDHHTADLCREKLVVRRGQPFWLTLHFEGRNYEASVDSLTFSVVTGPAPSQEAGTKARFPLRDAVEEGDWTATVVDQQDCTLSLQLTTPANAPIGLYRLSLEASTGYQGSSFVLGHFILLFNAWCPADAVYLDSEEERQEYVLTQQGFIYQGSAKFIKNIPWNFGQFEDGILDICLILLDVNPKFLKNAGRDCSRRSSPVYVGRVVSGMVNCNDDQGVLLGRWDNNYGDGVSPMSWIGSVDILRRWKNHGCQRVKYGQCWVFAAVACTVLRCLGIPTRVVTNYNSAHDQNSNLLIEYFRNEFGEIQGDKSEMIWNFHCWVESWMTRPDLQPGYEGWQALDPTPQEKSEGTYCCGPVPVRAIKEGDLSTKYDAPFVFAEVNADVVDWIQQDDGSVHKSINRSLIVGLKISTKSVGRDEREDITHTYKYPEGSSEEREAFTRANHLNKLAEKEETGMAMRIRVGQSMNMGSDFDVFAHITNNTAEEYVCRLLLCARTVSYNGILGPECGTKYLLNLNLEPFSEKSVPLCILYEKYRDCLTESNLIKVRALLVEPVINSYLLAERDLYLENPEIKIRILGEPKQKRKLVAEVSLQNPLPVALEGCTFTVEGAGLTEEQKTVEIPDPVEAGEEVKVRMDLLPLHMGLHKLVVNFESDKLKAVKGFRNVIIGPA
In words: TG2 transamidation activity, biotin X-cadaverine incorporation into N,N′-dimethylcasein (Example 2). Conditions: recombinant human TG2 400 ng/ml, 2 h at 37° C. The protocol: TG transamidation activity and the affect of inhibitors on activity was measured by biotin X-cadaverine incorporation into N,N′-dimethylcasein. After coating 96 well plates with 100 μl of 10 mg/ml N,N′-dimethylcasein in 50 mM Tris-Cl, pH8 at 4° C. over night, plates were washed with TBS-0.05% Tween-20(v/v), pH 7.6 and TBS, pH 7.6, and 100 μl purified recombinant human TG2 (400 ng/ml Zedira, Germany) (tissue transglutaminase) in 50 mM Tris-HCl, pH7.4, containing 1 mM DTT, 10 mM CaCl2 and 0.1 μM biotin-cadaverine added into the coated wells containing the appropriate concentration of inhibitor. The reaction was allowed to proceed for 2 h at 37° C. The plate was then washed twice with TBS-Tween-20 (v/v), pH 7.6 and once with TBS, pH 7.6 before being blocked with 100 μl of blocking buffer (3% (w/v) BSA in TBS-Tween, pH 7.6) for 30 min at 37° C. After blocking, the wells were incubated with 100 μl HRP-conjugated Extr-Avidin peroxidase (Sigma-Aldrich, UK) in blocking buffer (1:1,000 dilution) for 1 h at 37° C. After another set of washes, TG2 activity was measured using Sigma Fast OPD, tablets dissolved in 20 ml of distilled H2O. The colour was developed by adding 2.5 M H2SO4 and the absorbance at 490 nm measured using a microplate reader ELx808™. All inhibitors were dissolved in DMSO as a 100 mM solution prior to addition to the assay.

For test [2], the target named is T2, purified recombinant human TG2 (Homo sapiens, UniProt P21980).
T2 construct: purchased Zedira, Germany
T2 sequence (P21980 1-687): T1 sequence (P21980 1-687)
In words: Selectivity assay, TG2, biotin X-cadaverine incorporation into N,N′-dimethylcasein (Example 4). Conditions: recombinant human TG2 2 μg/ml, 1 h at 37° C.; errors are SD. The protocol:
(§1) TG transamidation activity and the effect of inhibitors on activity was measured by biotin X-cadaverine incorporation into N,N′-dimethylcasein. After coating 96 well plates with 100 μl of 10 mg/ml N,N′-dimethylcasein in 50 mM Tris-Cl, pH8 at 4° C. over night, plates were washed with TBS-0.05% Tween-20(v/v), pH 7.6 and TBS, pH 7.6, and either 100 μl purified recombinant human TG2 (2 μg/ml Zedira, Germany) or 100 μl purified recombinant human FXIIIa (2 μg/ml Zedira, Germany, preactivated by incubation with 0.01 U bovine thrombin/μg FXIII at room temperature for 30 minutes) in 50 mM Tris-HCl, pH7.4, containing 1 mM DTT, 10 mM CaCl2 and 0.1 μM biotin-cadaverine added into the coated wells containing the appropriate concentration of inhibitor. The reaction was allowed to proceed for 1 h at 37° C. The plate was then washed twice with TBS-Tween-20 (v/v), pH 7.6 and once with TBS, pH 7.6 before being blocked with 100 μl of blocking buffer (3% (w/v) BSA in TBS-Tween, pH 7.6) for 30 min at 37° C. After blocking, the wells were incubated with 100 μl HRP-conjugated ExtrAvidin peroxidase (Sigma-Aldrich, UK) in blocking buffer (1:1,000 dilution) for 1 h at 37° C. After another set of washes, TG2 activity was measured using Sigma Fast OPD, tablets dissolved in 20 ml of distilled H2O. The colour was developed by adding 2.5M H2SO4 and the absorbance at 490 nm measured using a microplate reader ELx808™. All inhibitors were dissolved in DMSO as a 100 mM solution prior to addition to the assay.

For test [3], the target named is T3, purified recombinant human FXIIIa (Homo sapiens, UniProt P00488).
T3 construct: purchased Zedira, Germany
T3 sequence (P00488 39-732 limits assumed): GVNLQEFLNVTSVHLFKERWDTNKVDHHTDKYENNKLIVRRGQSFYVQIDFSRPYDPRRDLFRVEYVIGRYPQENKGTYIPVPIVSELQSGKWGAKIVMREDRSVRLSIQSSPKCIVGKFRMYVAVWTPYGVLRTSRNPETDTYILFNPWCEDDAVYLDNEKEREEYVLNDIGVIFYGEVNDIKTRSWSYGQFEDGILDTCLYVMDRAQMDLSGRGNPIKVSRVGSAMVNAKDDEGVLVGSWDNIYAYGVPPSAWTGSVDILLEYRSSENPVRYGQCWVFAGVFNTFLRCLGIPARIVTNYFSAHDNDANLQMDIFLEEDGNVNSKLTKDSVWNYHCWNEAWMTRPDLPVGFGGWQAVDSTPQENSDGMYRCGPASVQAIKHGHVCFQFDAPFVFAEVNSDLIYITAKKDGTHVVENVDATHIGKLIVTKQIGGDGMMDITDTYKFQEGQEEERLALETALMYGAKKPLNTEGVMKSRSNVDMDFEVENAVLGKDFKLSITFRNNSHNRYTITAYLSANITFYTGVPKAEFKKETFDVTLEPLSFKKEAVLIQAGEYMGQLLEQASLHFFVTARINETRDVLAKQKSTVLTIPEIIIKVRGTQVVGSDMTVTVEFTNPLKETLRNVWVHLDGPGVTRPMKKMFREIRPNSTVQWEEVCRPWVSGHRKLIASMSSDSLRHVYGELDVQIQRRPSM
In words: Selectivity assay, FXIIIa, biotin X-cadaverine incorporation into N,N′-dimethylcasein (Example 4). The settings on record: recombinant human FXIIIa 2 μg/ml, thrombin preactivated, 1 h at 37° C.; errors are SD; read-out: FACTOR XIII IC50. As for the experimental part: as §1

Take `C[S+](C)CC(=O)N[C@@H](Cc1ccccc1)C(=O)N1CCN(C(=O)OCc2ccccc2)CC1` [EB 1-126]: the IC50 – broadly, the concentration that gives 50% inhibition – in test [1] was more than 100 µM; in test [2] it was more than 500 µM; in test [3], 15.5 ± 6.3 µM.

Take `C[S+](C)CC(=O)N[C@H](Cc1ccccc1)C(=O)N1CCN(C(=O)OCc2ccccc2)CC1` [EB 1-127]: the figures for the half-inhibitory concentration (IC50) in test [1], in test [2] and in test [3] were more than 100 µM, more than 500 µM and 23.3 ± 5.5 µM, respectively.

Consider `C=CC(=O)N[C@H](Cc1ccccc1)C(=O)N1CCN(C(=O)OCc2ccccc2)CC1` [EB 1-131], for which the IC50 in test [1] is more than 100 µM; in test [2] it was more than 500 µM; in test [3], 13.5 ± 4.9 µM.

(Values after US9656978B2, “Acylpiperazines as inhibitors of transglutaminase and their use in medicine” (ASTON UNIVERSITY, priority 2012, dated 2017).)
